Results taken from patent US10143719B2, “Inhibitors of valosin-containing protein and methods of use” (CASE WESTERN RESERVE UNIVERSITY, priority 2015, dated 2018).
Residues, ends and D or L forms follow the SMILES beside them. *: point of attachment. Cbz = O=C(OCc1ccccc1)*

System: Htt or mtHtt
Experiment: Htt/mtHtt protein levels after proteasome or VCP inhibitor
Format: cell-based, mouse
Conditions: HdhQ or HdhQ111 cells
Text: VCP plays a central role in protein degradation by binding to its substrates.

Row | Structure (SMILES) | Htt or mtHtt protein levels
1 | CC(C)C[C@@H](C=O)NC(=O)[C@H](CC(C)C)NC(=O)[C@H](CC(C)C)NC(=O)OCc1ccccc1 [MG132] (Cbz-Leu-Leu-Leu-aldehyde) | did not affect Htt or mtHtt protein levels
2 | CC1(C)C(N(O)C(=O)Nc2ccc(Cl)cc2)N(c2ccc(Cl)cc2)C(=O)N1CC(=O)N/N=C/C=C/c1ccc([N+](=O)[O-])o1 (centres unmarked) [Eeyarestatin I] | did not affect Htt or mtHtt protein levels
